Experimental data published in US9090670B2, “Use of peptides for promoting wound healing” (priority 2008, dated 2015).
Where no end group is shown, it is not given here.

What was measured:
[1] = tested on: human buccal epithelial cell line TR146; assay: In vitro scratch wound closure assay on an epithelial monolayer; format: cell-based
Procedure: The human buccal epithelial cell line TR146 (Rupniak et al; J Natl Cancer Inst. 1985 October: 75(4):621-35) was kindly provided by Cancer Research UK. Cells were grown in Dulbecco's modified Eagle medium with 4.5 g/l glucose (Invitrogen), 10% FCS (HyClone) and 100 U/ml penicillin, […] streptomycin, and 250 ng/ml amphotericinB (Antibiotic antimyotic solution, Sigma,), at 37° C., 95% humidity and 5% CO2. Cells were maintained until near confluence and then briefly treated with 0.25% trypsin-EDTA 1× (Invitrogen) to detach them, counted in a hepacytometer and seeded into new flasks or multi-well plates at the required cell density of about 1.5×10^5 cells/well. Wound assays were performed as previously described ([…] et al., 1993, J Cell Sci. 106 (Pt 3):869-78). In brief, cells were grown in 12-well plates until confluence, and then were serum deprived for 24 hours in keratinocyte serum free medium (SFM (Invitrogen)). In each well a scratch was made in the cellular monolayer using a sterile tip. The wounded monolayer was washed with SFM to remove cellular debris, and the following conditions were applied: • (i) Whole saliva and salivary secretions applied in 30% (v/v) in SFM. As a negative control 30% (v/v) saliva buffer was used. • (ii) (ii) rhEGF (Invitrogen) as a positive control • (iii) rp-HPLC fractions containing salivary proteins; • (iv) synthetic peptides: the experiments with isolated proteins and synthetic peptides were performed in full SFM. The width of the wound area was determined microscopically immediately after wound creation and at approximately 16 hours after wounding. The relative closure was calculated by relating the closure to that of the negative control.

[2] = tested on: human buccal epithelial cell line TR146; assay: In vitro wound closure with inhibitors of EGFR, p38 MAPK and ERK1/2; format: cell-based
Procedure: Wound assays were performed as previously described (Matthay et al., 1993, J Cell Sci. 106 (Pt 3):869-78). In brief, cells were grown in 12-well plates until confluence, and then were serum deprived for 24 hours in keratinocyte serum free medium (SFM (Invitrogen)). In each well a scratch was made in the cellular monolayer using a sterile tip. The wounded monolayer was washed with SFM to remove cellular debris, and the following conditions were applied: • (i) Whole saliva and salivary secretions applied in 30% (v/v) in SFM. As a negative control 30% (v/v) saliva buffer was used. • (ii) (ii) rhEGF (Invitrogen) as a positive control • (iii) rp-HPLC fractions containing salivary proteins; • (iv) synthetic peptides: the experiments with isolated proteins and synthetic peptides were performed in full SFM.
For inhibitor studies; directly after wounding cells were exposed to inhibitors of ERK1/2 (U0126, 5 μM, LC Laboratories), EGFR (AG1478, 1 μM, Calbiochem), and p38 MAPK (SB203580, 5 μM; LC Laboratories). Experiments were done in quadruplicate and analyzed using One-way ANOVA to determine significance with additional LSD post hoc test, P<0.05 was considered significant.

**Q.** How did the relative wound closure ([1]; concentration of 1*10-3 μM, FIG. 4, 1 = no peptide added) turn out when “C-HST1: cyclic peptide having the amino acid sequence according to SEQ. ID. NO. 4, Histatin 1 (DSHEKRHHGYRRKFHEKHHSHREFPFYGDYGSNYLYDN; ends and bridges not checked; also: cyclic, mode of cyclisation not given here)” was run?
**A.** Its relative wound closure is 1.5.

**Q.** With “EGF: epidermal growth factor, rhEGF (Invitrogen), used as a positive control” as the compound, how does the “induction of wound closure by EGF” value ([1]; 5 ng/ml, FIG. 1D) read?
**A.** Its value is “able to induce wound closure with rates comparable to that of parotid saliva”.

**Q.** And the “Wound closure rel. clos. ± SD” value ([1]; TR146 monolayer, approx. 16 hours after wounding, closure relative to negative control, peptides tested at 1-50 μg/ml)?
**A.** Its value is 1.41 ± 0.12.

**Q.** What about the “induced wound closure with EGFR blocked” value ([2]; AG1478 1 μM) of the same compound?
**A.** The value was “abolished the effect”.

**Q.** And the “pathway dependence of induced wound closure” value ([2]; SB203580 5 μM (p38 MAPK), U0126 5 μM (ERK1/2), FIG. 2)?
**A.** The value was “p38^MAPK dependent”.

**Q.** With `CC(C)C[C@H](NC(=O)[C@H](Cc1ccc(O)cc1)NC(=O)[C@H](CC(N)=O)NC(=O)[C@H](CO)NC(=O)[C@H](CCCNC(=N)N)NC(=O)[C@H](Cc1ccc(O)cc1)NC(=O)CNC(=O)[C@H](CCCNC(=N)N)NC(=O)[C@H](Cc1c[nH]cn1)NC(=O)[C@H](CO)NC(=O)[C@H](Cc1c[nH]cn1)NC(=O)[C@H](Cc1c[nH]cn1)NC(=O)[C@H](CCCCN)NC(=O)[C@H](CCC(=O)O)NC(=O)[C@H](Cc1c[nH]cn1)NC(=O)[C@H](Cc1ccccc1)NC(=O)[C@H](CCCCN)NC(=O)[C@H](CCCNC(=N)N)NC(=O)[C@H](CCCCN)NC(=O)[C@H](Cc1ccc(O)cc1)NC(=O)CNC(=O)[C@H](Cc1c[nH]cn1)NC(=O)[C@H](Cc1c[nH]cn1)NC(=O)[C@H](CCCNC(=N)N)NC(=O)[C@H](CCCCN)NC(=O)[C@H](C)NC(=O)[C@H](Cc1c[nH]cn1)NC(=O)[C@H](CO)NC(=O)[C@@H](N)CC(=O)O)C(=O)N[C@@H](Cc1ccc(O)cc1)C(=O)N[C@@H](CC(=O)O)C(=O)N[C@@H](CC(N)=O)C(=O)O` [Histatin 3] as the compound, how does the “induction of wound closure (in words)” value ([1]; synthesized peptides in SFM, vs control) read?
**A.** Its value is “induce wound closure”.
